# Laboratory results published in paper PMC10221946, “Screening of Tyrosinase, Xanthine Oxidase, and α-Glucosidase Inhibitors from Polygoni Cuspidati Rhizoma et Radix by Ultrafiltration and HPLC Analysis” (Molecules, 2023).
# pIC50: −log10 of the molar value.
# Columns and labels:
# TYR [1] = test: UF-HPLC screening, binding degree with TYR; details: PCR extraction 5 mg/mL, 200 U/mL TYR, 37 °C 60 min, active vs inactive enzyme peak area
# Description: (§1) The UF experiment was performed according to the method described in the literature, with slight modifications. In the experimental group, 200 µL of the PCR extraction (5 mg/mL) was mixed with 200 µL of 3 enzyme solutions (200 U/mL of TYR, 4 U/mL of XOD, and 6 U/mL of α-GLU, respectively). The mixtures were incubated at 37 °C for 60 min, and then 200 μL of each of them was transferred to a 3 KDa molecular weight cut-off ultrafiltration centrifuge tube to separate the unbound compounds from the enzyme–ligand complexes by centrifugation (9400× g, 30 min). Finally, the ultrafiltration filter was washed three times with 5% methanol–PBS under centrifugal conditions (9400× g, 30 min) to completely remove any unbound components. The concentration and pH of the PBS used for the different enzymes were the same as for the offline inhibition tests.
# (§2) Finally, the unbound component solutions of the experimental and control groups were analyzed by HPLC. […] Binding degree = (1 − P2/P1) × 100%(2)
# (§3) HPLC condition: An Agilent 1260 high-performance liquid chromatography system (Agilent Technologies, Santa Clara, CA, USA), equipped with a quaternary pump system, an auto-sampler, a column oven, and a diode array detector, was employed in the current experiment. The sample was separated on an Agilent Poroshell 120 EC-C18 column (100 mm × 4.6 mm, 2.7 μm). The column temperature was set at 30 °C. The mobile phase was 0.1% aqueous formic acid (A) and acetonitrile (B), with a gradient elution procedure of 5% B (0 min), 5% B (3 min), 20% B (23 min), 24% B (28 min), 60% B (32 min), and 100% B (38 min). The flow rate was 0.6 mL/min. The detection wavelength was set at 290 nm, and the injection volume was 5.0 µL.
# α-GLU [2] = test: UF-HPLC screening, binding degree with α-GLU; details: PCR extraction 5 mg/mL, 6 U/mL α-GLU, 37 °C 60 min, active vs inactive enzyme peak area
# Description: as §1, §2, §3
# XOD [3] = target: T1, XOD (Bos taurus, UniProt P80457); test: UF-HPLC screening, binding degree with XOD; details: PCR extraction 5 mg/mL, 4 U/mL XOD, 37 °C 60 min, active vs inactive enzyme peak area
# T1 construct: purchased Sigma-Aldrich (Shanghai, China)
# Description: as §1, §2, §3
# TYR [4] = test: Kinetic analysis (Lineweaver–Burk) on TYR; assay type: biochemical; details: Lineweaver–Burk plot, L-tyrosine 1.0~5.0 mM, TYR 200 U/mL
# Description: (§4) Subsequently, kinetic analysis was conducted using Lineweaver–Burk plots to investigate the inhibition modes on enzymes caused by methylgallate and polydatin. Competitive, noncompetitive, and mixed inhibitions are three common modes in enzyme kinetic analysis. […] All of the straight lines almost intersect on the Y axis at a certain point. […] All of the straight lines almost intersect on the X axis at a certain point. […] All of the straight lines usually intersect in the quadrants at one point.
# (§5) In this work, Lineweaver–Burk was used to investigate the inhibition type of methylgallate and polydatin on enzymes. For TYR, the concentration of the enzyme was kept constant at 200 U/mL, and various concentrations of L-tyrosine (1.0~5.0 mM) were prepared. Various concentrations of methylgallate (0.0~1.3 mM) and polydatin (0.0~0.4 mM) were also provided. For XOD, the concentration of the enzyme was kept constant at 0.05 U/mL, and various concentrations of xanthin (0.06~0.50 mM) were prepared. Various concentrations of polydatin (0.0~0.5 mM) were also provided. For α-GLU, the concentration of the enzyme was kept constant at 0.15 U/mL, and various concentrations of ρNPG (0.8~5.0 mM) were prepared. Various concentrations of polydatin (0.0~3.6 mM) were also provided. GraphPad Prism 5.0 software (USA) was used for the calculation.
# tyrosinase (TYR) = target: T2, tyrosinase (TYR) (Agaricus bisporus, UniProt C7FF04); test: Tyrosinase (TYR) inhibition test, offline 96-well microplate; assay type: biochemical
# T2 construct: purchased Sigma-Aldrich (Shanghai, China)
# Description: The reaction was incubated at 25 °C for 50 min. […] Inhibition (%) = [(Abscontrol − Abssample)/Abscontrol] × 100%(1)
# xanthine oxidase (XOD) = xanthine oxidase (XOD) (Bos taurus, UniProt P80457); test: Xanthine oxidase (XOD) inhibition test, offline 96-well microplate
# Description: In the XOD inhibition assay, each well contained 30 μL of the PCR sample, 30 μL of XOD (0.05 U/mL, dissolved in 200 mM of phosphate buffer, pH 8.5), and 15 μL of NBT (2 mg/mL, dissolved in 200 mM of phosphate buffer, pH 8.5). […] The reaction was stopped by adding 15 µL of SDS (10%). The reaction solution was tested at 560 nm.
# XOD [5] = target: T1, XOD; test: Kinetic analysis (Lineweaver–Burk) on XOD; assay type: biochemical; details: Lineweaver–Burk plot, xanthin 0.06~0.50 mM, XOD 0.05 U/mL
# Description: as §4, §5
# α-GLU [6] = test: Kinetic analysis (Lineweaver–Burk) on α-GLU; assay type: biochemical; details: Lineweaver–Burk plot, ρNPG 0.8~5.0 mM, α-GLU 0.15 U/mL
# Description: as §4, §5
# T1 sequence (P80457 whole entry): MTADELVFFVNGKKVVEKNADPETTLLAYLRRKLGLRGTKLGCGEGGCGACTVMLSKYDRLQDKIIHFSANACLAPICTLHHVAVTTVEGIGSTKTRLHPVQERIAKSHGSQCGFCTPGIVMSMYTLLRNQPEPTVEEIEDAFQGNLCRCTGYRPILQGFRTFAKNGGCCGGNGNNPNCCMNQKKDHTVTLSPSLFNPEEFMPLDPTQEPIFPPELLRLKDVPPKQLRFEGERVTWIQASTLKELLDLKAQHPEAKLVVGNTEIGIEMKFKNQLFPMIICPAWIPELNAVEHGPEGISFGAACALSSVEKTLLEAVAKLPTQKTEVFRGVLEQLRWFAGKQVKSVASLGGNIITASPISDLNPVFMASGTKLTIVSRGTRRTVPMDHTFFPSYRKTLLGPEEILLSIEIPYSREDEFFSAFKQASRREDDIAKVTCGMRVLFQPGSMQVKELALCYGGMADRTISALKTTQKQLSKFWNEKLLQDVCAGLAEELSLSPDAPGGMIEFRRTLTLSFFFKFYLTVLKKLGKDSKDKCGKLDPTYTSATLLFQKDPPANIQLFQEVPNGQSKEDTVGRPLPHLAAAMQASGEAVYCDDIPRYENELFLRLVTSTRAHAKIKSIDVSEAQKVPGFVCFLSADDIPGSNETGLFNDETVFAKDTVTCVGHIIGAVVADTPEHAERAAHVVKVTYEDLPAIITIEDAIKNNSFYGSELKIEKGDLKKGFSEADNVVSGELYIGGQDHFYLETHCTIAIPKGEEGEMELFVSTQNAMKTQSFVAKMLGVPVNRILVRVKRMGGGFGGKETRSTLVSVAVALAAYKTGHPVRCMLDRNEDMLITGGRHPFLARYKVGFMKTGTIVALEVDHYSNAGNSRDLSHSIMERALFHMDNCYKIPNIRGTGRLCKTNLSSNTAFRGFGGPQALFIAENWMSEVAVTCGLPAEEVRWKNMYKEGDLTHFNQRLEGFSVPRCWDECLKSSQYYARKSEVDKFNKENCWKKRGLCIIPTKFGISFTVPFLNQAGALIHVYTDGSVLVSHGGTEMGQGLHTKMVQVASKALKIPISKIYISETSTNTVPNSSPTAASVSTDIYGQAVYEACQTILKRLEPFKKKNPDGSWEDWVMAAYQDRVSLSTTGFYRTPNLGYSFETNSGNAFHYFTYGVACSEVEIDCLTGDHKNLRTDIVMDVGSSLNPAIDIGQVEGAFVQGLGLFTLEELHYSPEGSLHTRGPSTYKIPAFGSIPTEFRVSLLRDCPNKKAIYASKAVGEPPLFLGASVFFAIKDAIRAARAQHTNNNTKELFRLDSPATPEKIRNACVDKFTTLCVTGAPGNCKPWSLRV
# T2 sequence (C7FF04 1-392 limits assumed): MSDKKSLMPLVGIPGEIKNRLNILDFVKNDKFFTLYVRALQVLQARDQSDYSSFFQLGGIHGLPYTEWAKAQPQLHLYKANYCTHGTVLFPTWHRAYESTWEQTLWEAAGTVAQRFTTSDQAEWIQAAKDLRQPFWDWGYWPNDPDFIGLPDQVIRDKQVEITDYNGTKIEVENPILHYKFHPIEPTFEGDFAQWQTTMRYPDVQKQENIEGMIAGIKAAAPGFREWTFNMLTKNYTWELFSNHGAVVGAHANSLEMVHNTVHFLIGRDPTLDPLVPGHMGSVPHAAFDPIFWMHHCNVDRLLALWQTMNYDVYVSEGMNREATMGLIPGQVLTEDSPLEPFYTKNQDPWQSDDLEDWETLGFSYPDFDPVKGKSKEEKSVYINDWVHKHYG
# Sequence of xanthine oxidase (XOD) (P80457 whole entry): as the sequence (P80457 whole entry) above
SMILES,Binding degree: TYR (TYR [1]),Binding degree: α-GLU (α-GLU [2]),Binding degree: XOD (XOD [3]),further results
"O=C(OC[C@H]1O[C@@H](OC(=O)c2cc(O)c(O)c(O)c2)[C@H](O)[C@@H](O)[C@@H]1O)c1cc(O)c(O)c(O)c1 [1,6-Di-O-galloyl-D-glucose (2), 1,6-Di-O-galloyl-D-glucose]",77.53%,0.00%,50.69%,
"O=C(O)CC(=O)OCC1OC(Oc2cc(O)cc(C=Cc3ccc(O)cc3)c2)C(O)C(O)C1O (stereo not shown) [Malonyl glucoside resveratrol (6), Malonyl glucoside resveratrol]",57.00%,11.90%,49.77%,
"COC(=O)c1cc(O)c(O)c(O)c1 [Methylgallate (1), Methylgallate]",36.03%,0.00%,0.00%,inhibition mode on TYR (TYR [4]): noncompetitive type; pIC50 (tyrosinase (TYR)): 3.26
"OC[C@H]1O[C@@H](Oc2cc(O)cc(/C=C/c3ccc(O)cc3)c2)[C@H](O)[C@@H](O)[C@@H]1O [Polydatin (5), Polydatin]",,,,Binding degree: TYR (TYR [1]; listed as Peak 5): 80.74%; pIC50 (xanthine oxidase (XOD)): 2.67; inhibition mode on XOD (XOD [5]): competitive type; Binding degree: α-GLU (α-GLU [2]; listed as Peak 5): 16.51%; inhibition mode on TYR (TYR [4]): mixed type; inhibition mode on α-GLU (α-GLU [6]): mixed type; Binding degree: XOD (XOD [3]; listed as Peak 5): 55.80%; pIC50 (tyrosinase (TYR)): 3.73
"OC[C@H]1O[C@@H](Oc2ccc(/C=C/c3cc(O)cc(O[C@@H]4O[C@H](CO)[C@@H](O)[C@H](O)[C@H]4O)c3)cc2)[C@H](O)[C@@H](O)[C@@H]1O [Polydatin-4′-O-D-glucoside (3), Polydatin-4′-O-D-glucoside]",57.64%,0.00%,0.00%,
"OC[C@H]1O[C@@H](Oc2ccc(/C=C/c3cc(O)cc(O)c3)cc2)[C@H](O)[C@@H](O)[C@@H]1O [Resveratrol-4′-O-D-glucoside (4), Resveratrol-4′-O-D-glucoside]",71.32%,14.58%,30.66%,
"OC[C@H]1O[C@@H](Oc2cc(O)cc(/C=C/c3ccc(O)cc3)c2)[C@H](O)[C@@H](O)[C@@H]1O [Resveratrol-5-O-D-glucoside (7), Resveratrol-5-O-D-glucoside]",,,,Binding degree: TYR (TYR [1]; listed as Peak 7): 70.51%; Binding degree: α-GLU (α-GLU [2]; listed as Peak 7): 0.00%; Binding degree: XOD (XOD [3]; listed as Peak 7): 11.65%
